Measurements reported in paper PMC12256323, “Crustacean methyl farnesoate–binding protein is an insect juvenile hormone–binding protein homolog that inhibits molting” (The Journal of Biological Chemistry, 2025).

How the values were obtained:
[1] = molecular target: T1, r-LvMFBP (XP_027209752.1; methyl farnesoate-binding protein, MFBP); assay: isothermal titration calorimetry; parameters: species or system Penaeus vannamei; settings: 20 uM protein, 200 uM ligand, 20 mM Tris-HCl pH 7.5, 30 C
T1 construct: recombinant, E. coli BL21-T1R, HisTALON (His-tag) purified; precursor 215 aa with 16 aa signal peptide, mature 199 aa

[2] = molecular target: T1, r-LvMFBP (XP_027209752.1; methyl farnesoate-binding protein, MFBP); assay: isothermal titration calorimetry (also surface plasmon resonance); parameters: species or system Penaeus vannamei; settings: ITC: 20 uM protein, 200 uM ligand, 20 mM Tris-HCl pH 7.5, 30 C; SPR: immobilized protein, PBST pH 7.4

Row | SMILES | Kd [1] | Kd [2]
1 | COC(C)(C)CCCC(C)C/C=C/C(C)=C/C(=O)OC(C)C (stereo not drawn) [Met, methoprene] | 34.7 µM | 
2 | CC(C)=CCC/C(C)=C/CC/C(C)=C/C(=O)O [FA, farnesoic acid] | 630 µM | 
3 | COC(=O)/C=C(\C)CC/C=C(\C)CCC=C(C)C [MF, methyl farnesoate] |  | 0.666 µM
